Columns and labels:
DATST = test: Pre-emergence herbicidal activity on DATST (jimsonweed); format: in vivo, Datura stramonium; details: greenhouse
Procedure, shortened: (§1)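 Seeds sown on sterilized fertilized topsoil and covered, then compound in organic solvent diluted with 50:50 acetone/water applied to soil surface; greenhouse at 30/21° C. day/night with 0.64 cm overhead irrigation. Percent inhibition versus untreated plants scored about 14 days after treatment; GR80 derived, highest rate typically 1000 g/ha.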

PANMI = test: Pre-emergence herbicidal activity on PANMI (wild proso millet); format: in vivo, Panicum miliaceum; details: greenhouse
Procedure, shortened: as §1

CHEAL = test: Pre-emergence herbicidal activity on CHEAL (common lambsquarters); format: in vivo, Chenopodium album; details: greenhouse
Procedure, shortened: as §1

POROL = test: Pre-emergence herbicidal activity on POROL (common purslane); format: in vivo, Portulaca oleracea; details: greenhouse
Procedure, shortened: as §1

PANDI = test: Pre-emergence herbicidal activity on PANDI (fall panicum); format: in vivo, Panicum dichotomiflorum; details: greenhouse
Procedure, shortened: as §1

dicotyledonous species = test: Greenhouse post-emergence test in combination with glyphosate, dicotyledonous species; format: in vivo
Description: (§2) A pre-prepared topsoil mixture (described above) was placed in a pot and compacted to a depth of 1.0 to 1.25 cm from the top of the pot. Seeds of each of several monocotyledonous and dicotyledonous annual plant species were placed on top of the soil The seeds were covered with a mixture of 50% topsoil and 50% Rediearth™ in sufficient quantity to level-fill the pots. The pots were then placed on a greenhouse bench and subirrigated as needed until plants growing from the seeds had emerged and reached a suitable growth stage for post-emergence treatment, typically 9 to 14 days after planting.
(§3) A known amount of each test compound dissolved or suspended in an appropriate organic solvent was diluted with a 50:50 mix of acetone and water and applied to the plants by spraying with a standard spray nozzle in a spray volume of 3,100 l/ha at a spray pressure of […] (30 psig). Control plants were not sprayed.
(§4) After treatment the plants were placed in a greenhouse with a 30/21° C. day/night temperature regime and were subsequently watered as needed for growth. Approximately 14 days after treatment, the plants were observed and herbicidal efficacy recorded as percent inhibition by comparison with control plants.
(§5) In a greenhouse post-emergence test conducted according to the procedure described hereinabove, R-2-fluoro-3-trifluoromethyl-N-[1-methyl-2-(3-trifluoromethyl)phenylcarbonylamino]ethylbenzamide (the compound of Example 13) was applied at 0, 64, 125 and 250 g/ha in combination with glyphosate isopropylammonium salt at 1000 g a.e./ha. The glyphosate herbicide alone gave 72% control of dicotyledonous species and 84% control of monocotyledonous species. […] At 250 g/ha, addition of the compound of Example 13 gave 93% control of dicotyledonous species, but reduced control of monocotyledonous species to 73%.

CIRAR = test: Pre-emergence herbicidal activity on CIRAR (canada thistle, seedling); format: in vivo, Cirsium arvense; details: greenhouse
Procedure, shortened: as §1

[1] = test system: monocotyledonous and dicotyledonous annual plant species; test: Greenhouse pre-emergence test, all species of the test taken together; format: in vivo
Description: All such uses, and the biological activity enabling such uses, are embraced by the term “herbicidal” herein. […] Where herbicidal activity was evident but 80% inhibition was not achieved at the highest rate tested (typically 1000 g/ha), an asterisk (*) is shown in the following tables. Herbicidal activity evident in the form of symptoms of phytotoxicity, in the absence of at least 80% inhibition at any rate, is indicated in the tables by “phyto”. A blank cell in the following tables indicates no herbicidal or phytotoxic response at any rate tested.
The pre-emergence tests were conducted by the following procedure. Topsoil was sieved to pass through a 1.27 cm screen. Fertilizer was added to the topsoil and the mixture was then sterilized by heating. The topsoil mixture was placed in a pot and compacted to a depth of 1.0 to 1.25 cm from the top of the pot. Seeds of each of several monocotyledonous and dicotyledonous annual plant species were placed on top of the soil. Additional soil was subsequently placed over the seeds to level-fill the pot. A known amount of each test compound dissolved or suspended in an appropriate organic solvent was diluted with a 50:50 mix of acetone and water and applied to the surface of the soil. After treatment the plants were placed in a greenhouse with a 30/21° C. day/night temperature regime where they received 0.64 cm of overhead irrigation. All subsequent watering consisted of a light overhead mist and/or subirrigation as needed for germination and growth.
Pre-emergence herbicidal activity of the compound of Example 5, a racemic mixture of R- and S-enantiomers of N,N′-(1,2-propanediylbis)-3-(trifluoromethyl) benzamide, was compared with that of the individual R- and S-enantiomers, the compounds of Examples 5a and 5b respectively. The procedure was exactly as described above. Rates tested were 1000, 650, 300, 200, 100, 65, 30 and 10 g/ha.
In a greenhouse pre-emergence test conducted according to the procedure described hereinabove, R—N,N′-(1,2-propanediylbis)-3-(trifluoromethyl)benzamide (the compound of Example 5a) was applied at 200 g/ha and acetochlor was applied at 100 g/ha, both individually and in combination.
In the same greenhouse pre-emergence test, R-2-fluoro-3-trifluoromethyl-N-[1-methyl-2-(3-trifluoromethyl)phenylcarbonylamino]ethylbenzamide (the compound of Example 13) was applied at 100 g/ha and acetochlor was applied at 100 g/ha, both individually and in combination.

SORHA = test: Pre-emergence herbicidal activity on SORHA (johnsongrass, seedling); format: in vivo, Sorghum halepense; details: greenhouse
Procedure, shortened: as §1

DIGSA = test: Pre-emergence herbicidal activity on DIGSA (large crabgrass); format: in vivo, Digitaria sanguinalis; details: greenhouse
Procedure, shortened: as §1

CONAR = test: Pre-emergence herbicidal activity on CONAR (field bindweed); format: in vivo, Convolvulus arvensis; details: greenhouse
Procedure, shortened: as §1

SOLNI = test: Pre-emergence herbicidal activity on SOLNI (black nightshade); format: in vivo, Solanum nigrum; details: greenhouse
Procedure, shortened: as §1

SETFA = test: Pre-emergence herbicidal activity on SETFA (giant foxtail); format: in vivo, Setaria faberi; details: greenhouse
Procedure, shortened: as §1

ECHCG = test: Pre-emergence herbicidal activity on ECHCG (barnyardgrass); format: in vivo, Echinochloa crus-galli; details: lowest tested rate giving 80% or greater inhibition, approx. 14 days after planting and treating, greenhouse
Procedure, shortened: as §1

SORVU = test: Pre-emergence herbicidal activity on SORVU (shattercane); format: in vivo, Sorghum vulgare; details: lowest tested rate giving 80% or greater inhibition, approx. 14 days after planting and treating, greenhouse
Procedure, shortened: as §1

BRAPP = test: Pre-emergence herbicidal activity on BRAPP (broadleaf signalgrass); format: in vivo, Brachiaria platyphylla; details: greenhouse
Procedure, shortened: as §1

AMARE = test: Pre-emergence herbicidal activity on AMARE (redroot pigweed); format: in vivo, Amaranthus retroflexus; details: greenhouse
Procedure, shortened: as §1

monocotyledonous species = test: Greenhouse post-emergence test in combination with glyphosate, monocotyledonous species; format: in vivo
Description: as §2, §3, §4, §5

ABUTH = test: Pre-emergence herbicidal activity on ABUTH (velvetleaf); format: in vivo, Abutilon theophrasti; details: greenhouse
Procedure, shortened: as §1

[2] = lowest tested rate giving 80% or greater inhibition, approx. 14 days after planting and treating
[3] = Example 13 at 64 g/ha in combination with glyphosate isopropylammonium salt 1000 g a.e./ha
[4] = Example 13 at 125 g/ha in combination with glyphosate isopropylammonium salt 1000 g a.e./ha
[5] = Example 13 at 250 g/ha in combination with glyphosate isopropylammonium salt 1000 g a.e./ha

## C[C@H](CNC(=O)c1cccc(C(F)(F)F)c1)NC(=O)c1cccc(C(F)(F)F)c1F [Example 13, R-2-fluoro-3-trifluoromethyl-N-[1-methyl-2-(3-trifluoromethyl)phenylcarbonylamino]ethylbenzamide]
DATST; applied alone at 100 g/ha
  Percent control by pre-emergence application, DATST: 12%
DATST; [2]
  Pre-emergence activity (GR80) on DATST: 125 g/ha
PANMI; applied alone at 100 g/ha
  Percent control by pre-emergence application, PANMI: 5%
PANMI; [2]
  Pre-emergence activity (GR80) on PANMI: 500 g/ha
CHEAL; applied alone at 100 g/ha
  Percent control by pre-emergence application, CHEAL: 95%
CHEAL; [2]
  Pre-emergence activity (GR80) on CHEAL: 64 g/ha
POROL; applied alone at 100 g/ha
  Percent control by pre-emergence application, POROL: 100%
POROL; [2]
  Pre-emergence activity (GR80) on PORAL: 64 g/ha
PANDI; applied alone at 100 g/ha
  Percent control by pre-emergence application, PANDI: 40%
PANDI; [2]
  Pre-emergence activity (GR80) on PANDI: 250 g/ha
Dicotyledonous species; [3]
  control of dicotyledonous species: 85%
Dicotyledonous species; [4]
  control of dicotyledonous species: 95%
Dicotyledonous species; [5]
  control of dicotyledonous species: 93%
CIRAR; applied alone at 100 g/ha
  Percent control by pre-emergence application, CIRAR: 25%
CIRAR; [2]
  Pre-emergence activity (GR80) on CIRAR: 64 g/ha
[1]; Example 13 100 g/ha + acetochlor 100 g/ha, at least on ABUTH, DATST, SOLNI and PANMI
  herbicidal activity of the combination compared with expectation: greater than expected herbicidal activity
[1]; Example 13 100 g/ha in combination with acetochlor 100 g/ha
  number of the 14 species showing >85% control: 10
[1]; Example 13 alone at 100 g/ha
  number of the 14 species showing >85% control: 3
SORHA; applied alone at 100 g/ha
  Percent control by pre-emergence application, SORHA: 7%
SORHA; [2]
  Pre-emergence activity (GR80) on SORHA: 500 g/ha
DIGSA; applied alone at 100 g/ha
  Percent control by pre-emergence application, DIGSA: 43%
DIGSA; [2]
  Pre-emergence activity (GR80) on DIGSA: 125 g/ha
CONAR; applied alone at 100 g/ha
  Percent control by pre-emergence application, CONAR: 38%
CONAR; [2]
  Pre-emergence activity (GR80) on CONAR: 750 g/ha
SOLNI; applied alone at 100 g/ha
  Percent control by pre-emergence application, SOLNI: 45%
SOLNI; [2]
  Pre-emergence activity (GR80) on SOLNI: 125 g/ha
SETFA; applied alone at 100 g/ha
  Percent control by pre-emergence application, SETFA: 25%
SETFA; [2]
  Pre-emergence activity (GR80) on SETFA: 125 g/ha
ECHCG
  Pre-emergence activity (GR80) on ECHCG: 500 g/ha
SORVU
  Pre-emergence activity (GR80) on SORVU: 1000 g/ha
BRAPP; applied alone at 100 g/ha
  Percent control by pre-emergence application, BRAPP: 4%
BRAPP; [2]
  Pre-emergence activity (GR80) on BRAPP: 500 g/ha
AMARE; applied alone at 100 g/ha
  Percent control by pre-emergence application, AMARE: 86%
AMARE; [2]
  Pre-emergence activity (GR80) on AMARE: 64 g/ha
Monocotyledonous species; [3]
  control of monocotyledonous species: 89%
Monocotyledonous species; [4]
  control of monocotyledonous species: 89%
Monocotyledonous species; [5]
  control of monocotyledonous species: 73%
ABUTH; applied alone at 100 g/ha
  Percent control by pre-emergence application, ABUTH: 2%
ABUTH; [2]
  Pre-emergence activity (GR80) on ABUTH: 250 g/ha

Source: patent publication US20020052295A1, “Diacyl derivatives of propylene diamine having herbicidal activity” (priority 1999, published 2002)
